From patent US11339130B1 (Blade Therapeutics, Inc., priority 2016, dated 2022)
Where two headings read alike, the source gives them in different places.

Columns and labels:
Human Calpain 2/NS1 = target: T1, Human Calpain 2/NS1 (Homo sapiens, UniProt P17655); test: Calpain inhibition continuous fluorescence (FRET) assay, Human Calpain 2/NS1; type: biochemical; conditions: read-out: Human Calpain 2/NS1 IC50
T1 sequence (P17655 1-700): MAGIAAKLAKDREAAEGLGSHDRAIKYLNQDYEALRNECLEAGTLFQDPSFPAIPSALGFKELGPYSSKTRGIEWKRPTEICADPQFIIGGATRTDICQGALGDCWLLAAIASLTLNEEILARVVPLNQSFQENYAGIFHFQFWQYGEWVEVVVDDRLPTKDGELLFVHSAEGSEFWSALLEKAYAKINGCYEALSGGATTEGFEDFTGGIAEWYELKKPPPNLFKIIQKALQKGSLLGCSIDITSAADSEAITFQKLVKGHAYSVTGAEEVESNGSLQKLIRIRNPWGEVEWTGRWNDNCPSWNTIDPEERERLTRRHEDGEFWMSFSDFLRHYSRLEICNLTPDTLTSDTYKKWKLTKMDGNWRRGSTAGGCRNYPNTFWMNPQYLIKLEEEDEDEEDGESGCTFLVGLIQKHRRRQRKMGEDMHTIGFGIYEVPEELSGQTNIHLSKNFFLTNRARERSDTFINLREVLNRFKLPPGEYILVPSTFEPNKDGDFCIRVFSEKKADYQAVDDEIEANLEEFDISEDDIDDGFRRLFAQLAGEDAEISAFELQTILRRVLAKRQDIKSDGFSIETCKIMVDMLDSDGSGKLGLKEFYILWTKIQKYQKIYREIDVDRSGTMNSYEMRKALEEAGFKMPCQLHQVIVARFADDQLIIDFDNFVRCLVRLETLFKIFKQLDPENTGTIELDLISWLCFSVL
T1 sequence (P04632 1-268 partner): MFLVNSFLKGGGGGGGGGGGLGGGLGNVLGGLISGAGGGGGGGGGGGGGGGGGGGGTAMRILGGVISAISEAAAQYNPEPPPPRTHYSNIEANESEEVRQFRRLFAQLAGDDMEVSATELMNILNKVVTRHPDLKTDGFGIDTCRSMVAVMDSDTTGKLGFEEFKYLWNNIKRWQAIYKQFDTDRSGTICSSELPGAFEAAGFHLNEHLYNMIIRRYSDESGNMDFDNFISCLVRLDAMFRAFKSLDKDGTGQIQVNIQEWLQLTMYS
Method in brief: (§1)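 Inhibitors were preincubated with calpain in 50 mM Tris pH 7.5, 100 mM NaCl, 1 mM DTT at 25C. Reactions were started with 5-FAM/QXL 520 FRET peptide substrate plus CaCl2 and read at 490/520 nm for 10 min. IC50s came from 4-parameter fits of slope rates (1-5 min).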

[1] = test system: Calpain activity in SH-SY5Y cells; test: SH-SY5Y + AMC fluorescence assay (Suc-LLVY-AMC substrate); type: cell-based; conditions: read-out: SH-SY5Y + AMC IC50
Human Calpain 1/NS1 = target: T2, Human Calpain 1/NS1 (Homo sapiens, UniProt P07384); test: Calpain inhibition continuous fluorescence (FRET) assay, Human Calpain 1/NS1; type: biochemical; conditions: read-out: Human Calpain 1/NS1 IC50
T2 sequence (P07384 1-714): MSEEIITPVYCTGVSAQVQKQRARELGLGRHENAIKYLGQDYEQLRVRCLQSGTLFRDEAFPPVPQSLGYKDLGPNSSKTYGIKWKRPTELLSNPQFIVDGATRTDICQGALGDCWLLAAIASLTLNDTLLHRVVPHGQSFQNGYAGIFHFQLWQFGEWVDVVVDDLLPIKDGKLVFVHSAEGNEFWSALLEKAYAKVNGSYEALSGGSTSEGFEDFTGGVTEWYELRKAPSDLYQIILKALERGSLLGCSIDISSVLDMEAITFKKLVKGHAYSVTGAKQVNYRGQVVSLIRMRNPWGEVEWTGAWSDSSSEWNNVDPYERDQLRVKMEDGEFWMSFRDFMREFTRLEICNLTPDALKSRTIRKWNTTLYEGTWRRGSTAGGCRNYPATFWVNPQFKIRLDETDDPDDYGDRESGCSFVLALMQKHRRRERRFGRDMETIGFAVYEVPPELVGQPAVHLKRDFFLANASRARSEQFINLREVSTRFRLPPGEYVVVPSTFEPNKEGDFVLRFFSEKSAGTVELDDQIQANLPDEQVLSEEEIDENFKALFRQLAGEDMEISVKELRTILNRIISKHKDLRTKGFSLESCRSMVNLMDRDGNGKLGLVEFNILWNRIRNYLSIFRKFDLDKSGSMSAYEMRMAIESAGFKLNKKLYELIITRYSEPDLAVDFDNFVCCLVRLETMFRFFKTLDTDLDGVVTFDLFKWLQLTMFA
T2 sequence (P04632 1-268 partner): T1 sequence (P04632 1-268 partner)
Method in brief: as §1

[2] = test system: Calpain activity in SH-SY5Y cells (SBDP-150); test: SH-SY5Y Spectrin western blot assay (SBDP-150 breakdown product, A23187-induced); type: cell-based; conditions: Homo sapiens, SH-SY5Y cells, read-out: SH-SY5Y Spectrin IC50
Human Calpain 9/NS1 = target: T3, Human Calpain 9/NS1 (Homo sapiens, UniProt O14815); test: Calpain inhibition continuous fluorescence (FRET) assay, Human Calpain 9/NS1; type: biochemical; conditions: read-out: Human Calpain 9/NS1 IC50
T3 sequence (O14815 1-690): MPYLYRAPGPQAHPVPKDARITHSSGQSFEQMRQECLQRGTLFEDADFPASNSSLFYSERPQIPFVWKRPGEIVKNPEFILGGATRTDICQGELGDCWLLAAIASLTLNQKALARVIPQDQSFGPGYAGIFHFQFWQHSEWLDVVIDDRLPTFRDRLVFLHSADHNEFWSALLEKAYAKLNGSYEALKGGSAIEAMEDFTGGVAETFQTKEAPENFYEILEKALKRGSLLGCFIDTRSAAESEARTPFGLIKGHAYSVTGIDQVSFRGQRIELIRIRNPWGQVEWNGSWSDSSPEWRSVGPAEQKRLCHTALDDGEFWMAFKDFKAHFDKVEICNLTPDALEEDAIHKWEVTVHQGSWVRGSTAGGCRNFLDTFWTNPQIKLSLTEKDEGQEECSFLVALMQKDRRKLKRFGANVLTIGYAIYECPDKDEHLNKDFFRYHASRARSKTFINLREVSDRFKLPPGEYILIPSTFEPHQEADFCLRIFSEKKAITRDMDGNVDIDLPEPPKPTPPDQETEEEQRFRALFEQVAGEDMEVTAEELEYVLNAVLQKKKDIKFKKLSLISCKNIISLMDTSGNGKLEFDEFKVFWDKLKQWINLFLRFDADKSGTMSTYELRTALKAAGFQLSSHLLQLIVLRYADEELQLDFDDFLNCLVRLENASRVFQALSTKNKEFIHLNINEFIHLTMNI
T3 sequence (P04632 1-268 partner): T1 sequence (P04632 1-268 partner)
Method in brief: as §1

[3] = A23187-induced SBDP-150, western blot
[4] = Column D, A23187-induced SBDP-150

| Structure (SMILES) | IC50 (Human Calpain 2/NS1) [µM] | IC50 [1] [µM] | IC50 (Human Calpain 1/NS1) [µM] | IC50 [2, 3] [µM] | IC50 (Human Calpain 9/NS1) [µM] | IC50 (Human Calpain 2/NS1; Column B) [µM] | IC50 ([1]; Column E) [µM] | IC50 (Human Calpain 1/NS1; Column A) [µM] | IC50 [2, 4] [µM] | IC50 (Human Calpain 9/NS1; Column C) [µM] |
| --- | --- | --- | --- | --- | --- | --- | --- | --- | --- | --- |
| Cc1cc(C(=O)NC(Cc2ccccc2)C(=O)C(N)=O)n(-c2ncccn2)n1 (stereo not drawn) [Compound 351, N-(4-amino-3,4-dioxo-1-phenylbutan-2-yl)-3-methyl-1-(pyrimidin-2-yl)-1H-pyrazole-5-carb oxamide] | < 3 | < 10 | < 3 | 10 to 25 | < 3 | – | – | – | – | – |
| Cc1cc(C(=O)NC(Cc2ccccc2)C(=O)C(N)=O)n(-c2ncccc2F)n1 (stereo not drawn) [Compound 348, N-(4-amino-3,4-dioxo-1-phenylbutan-2-yl)-1-(3-fluoropyridin-2-yl)-3-methyl-1H-pyrazole-5-carboxamide] | < 3 | < 10 | < 3 | > 25 | < 3 | – | – | – | – | – |
| Cc1cccc(-c2ccc(-n3nc(C)cc3C(=O)N[C@@H](Cc3ccccc3)C(=O)C(N)=O)cc2)c1 [Compound 218, (S)—N-(4-amino-3,4-dioxo-1-phenylbutan-2-yl)-3-methyl-1-(3′-methyl-[1,1′-biphenyl]-4-yl)-1H-pyrazole-5-carboxamide] | – | – | – | – | – | < 3 | > 25 | < 3 | 10 to 25 | < 3 |
| Cc1cc(C(=O)NC(Cc2ccccc2)C(=O)C(N)=O)n(-c2ccc(Oc3ccccc3)cc2)n1 (stereo not drawn) [Compound 439, N-(4-Amino-3,4-dioxo-1-phenylbutan-2-yl)-3-methyl-1-(4-phenoxyphenyl)-1H-pyrazole-5-carboxamide] | < 3 | > 25 | < 3 | < 10 | < 3 | – | – | – | – | – |
| Cc1cc(C(=O)N[C@@H](Cc2ccccc2)C(=O)C(N)=O)n(-c2ccnc(Cl)n2)n1 [Compound 246, (S)—N-(4-amino-3,4-dioxo-1-phenylbutan-2-yl)-1-(2-chloropyrimidin-4-yl)-3-methyl-1H-pyrazole-5-carboxamide] | – | – | – | – | – | < 3 | < 10 | < 3 | 10 to 25 | < 3 |
| CC(C)n1cc(C(=O)NC(Cc2ccccc2)C(=O)C(N)=O)c(-c2ccc(F)cc2)n1 (stereo not drawn) [Compound 474, N-(4-amino-3,4-dioxo-1-phenylbutan-2-yl)-3-(4-fluorophenyl)-1-isopropyl-1H-pyrazole-4-carboxamide] | < 3 | 10 to 25 | < 3 | 10 to 25 | < 3 | – | – | – | – | – |
| Cc1nc(-c2ccccc2)c(C(=O)N[C@H](C=O)Cc2ccccc2)o1 [Compound 322, (S)-2-methyl-N-(1-oxo-3-phenylpropan-2-yl)-4-phenyloxazole-5-carboxamide] | < 3 | > 25 | < 3 | 10 to 25 | < 3 | – | – | – | – | – |
| Cc1ccccc1-c1nsnc1C(=O)NC(Cc1ccccc1)C(=O)C(N)=O (stereo not drawn) [Compound 326, N-(4-amino-3,4-dioxo-1-phenylbutan-2-yl)-4-(o-tolyl)-1,2,5-thiadiazole-3-carboxamide] | < 3 | < 10 | < 3 | 10 to 25 | < 3 | – | – | – | – | – |
| COc1nccc(-n2nc(C)cc2C(=O)NC(Cc2ccccc2)C(=O)C(N)=O)n1 (stereo not drawn) [Compound 436, N-(4-amino-3,4-dioxo-1-phenylbutan-2-yl)-1-(2-methoxypyrimidin-4-yl)-3-methyl-1H-pyrazole-5-carboxamide] | < 3 | < 10 | < 3 | > 25 | < 3 | – | – | – | – | – |
| CCc1nc(-c2ccccc2)c(C(=O)N[C@@H](Cc2ccccc2)C(=O)C(N)=O)o1 [Compound 226, (S)—N-(4-amino-3,4-dioxo-1-phenylbutan-2-yl)-2-ethyl-4-phenyloxazole-5-carboxamide] | – | – | – | – | – | < 3 | < 10 | < 3 | < 10 | < 3 |
| CC(C)n1cc(C(=O)N[C@@H](Cc2ccccc2)C(=O)C(N)=O)c(-c2ccccc2)n1 [Compound 242, (S)—N-(4-amino-3,4-dioxo-1-phenylbutan-2-yl)-1-isopropyl-3-phenyl-1H-pyrazole-4-carboxamide] | – | – | – | – | – | < 3 | < 10 | < 3 | > 25 | < 3 |
| Cn1cc(C(=O)N[C@@H](Cc2ccccc2)C(=O)C(N)=O)c(-c2cccc(C(F)(F)F)c2)n1 [Compound 183, (S)—N-(4-amino-3,4-dioxo-1-phenylbutan-2-yl)-1-methyl-3-(3-(trifluoromethyl)phenyl)-1H-pyrazole-4-carboxamide] | – | – | – | – | – | < 3 | 10 to 25 | < 3 | < 10 | < 3 |
| COc1ccc(F)c(-c2nn(C)cc2C(=O)NC(Cc2ccccc2)C(=O)C(N)=O)c1 (stereo not drawn) [Compound 507, N-(4-amino-3,4-dioxo-1-phenylbutan-2-yl)-3-(2-fluoro-5-methoxyphenyl)-1-methyl-1H-pyrazole-4-carboxamide] | < 3 | < 10 | < 3 | 10 to 25 | < 3 | – | – | – | – | – |
| NC(=O)C(=O)C(Cc1ccccc1)NC(=O)c1cn(C(F)F)nc1-c1cncc2ccccc12 (stereo not drawn) [Compound 561, N-(4-amino-3,4-dioxo-1-phenylbutan-2-yl)-1-(difluoromethyl)-3-(isoquinolin-4-yl)-1H-pyrazole-4-carboxamide] | < 3 | 10 to 25 | < 3 | 10 to 25 | < 3 | – | – | – | – | – |
| O=C[C@H](Cc1ccccc1)NC(=O)c1cn(C2CC2)nc1-c1ccccc1 [Compound 330, (S)-1-cyclopropyl-N-(1-oxo-3-phenylpropan-2-yl)-3-phenyl-1H-pyrazole-4-carboxamide] | < 3 | 10 to 25 | < 3 | 10 to 25 | < 3 | – | – | – | – | – |
